From publication PMC11620503 (Antimicrobial Agents and Chemotherapy, 2024)
≈ marks a conversion by molar mass, not a printed value. Read-outs that look alike come from different tables or passages of the source.

Experiments:
SHV-12 = SHV-12 (Klebsiella pneumoniae, UniProt P0A3M1, L31Q); assay: Ki app determination (Waley's method)
OXA-48 = OXA-48 (Klebsiella pneumoniae, UniProt Q6XEC0); assay: Ki app determination (Waley's method)
NDM-5 = NDM-5 (Klebsiella pneumoniae, UniProt C7C422, M154L/V88L); assay: Ki app determination (Waley's method)
CTX-M-27 = CTX-M-27 (Escherichia coli, UniProt Q840M4); assay: Ki app determination (Waley's method)
IMP-1 = IMP-1 (Serratia marcescens, UniProt P52699); assay: Ki app determination (Waley's method)
KPC-38 = KPC-38 (Klebsiella pneumoniae, UniProt Q9F663); assay: Ki app determination (Waley's method); conditions: read-out: Ki app, means from three independent studies
OXA-23 = OXA-23 (Acinetobacter baumannii, UniProt Q9L4P2); assay: Ki app determination (Waley's method)
VIM-2 = VIM-2 (Escherichia coli, UniProt Q5U7L7); assay: Ki app determination (Waley's method)
OXA-66 = OXA-66 (Acinetobacter baumannii, UniProt Q58XD2); assay: Ki app determination (Waley's method)
IMP-6 = IMP-6 (Serratia marcescens, UniProt P52699, S214G); assay: Ki app determination (Waley's method)
KPC-3 = KPC-3 (Klebsiella pneumoniae, UniProt Q9F663, H272Y); assay: Ki app determination (Waley's method)
NDM-1 = NDM-1 (Klebsiella pneumoniae, UniProt C7C422); assay: Ki app determination (Waley's method)
SHV-2 = SHV-2 (Klebsiella pneumoniae, UniProt P0A9Z8); assay: Ki app determination (Waley's method)
NDM-4 = NDM-4 (Klebsiella pneumoniae, UniProt C7C422, M154L); assay: Ki app determination (Waley's method)
CTX-M-14 = CTX-M-14 (Escherichia coli, UniProt Q9L5C7); assay: Ki app determination (Waley's method)
NDM-6 = NDM-6 (Klebsiella pneumoniae, UniProt C7C422, A233V); assay: Ki app determination (Waley's method)
KPC-2 = KPC-2 (Klebsiella pneumoniae, UniProt Q9F663); assay: Ki app determination (Waley's method)
CTX-M-15 = CTX-M-15 (Escherichia coli, UniProt Q9EXV5); assay: Ki app determination (Waley's method)
VIM-1 = VIM-1 (Pseudomonas aeruginosa, UniProt A0A0F7KYQ8); assay: Ki app determination (Waley's method)
NDM-7 = NDM-7 (Klebsiella pneumoniae, UniProt C7C422, D130N/M154L); assay: Ki app determination (Waley's method)
OXA-72 = OXA-72 (Acinetobacter baumannii, UniProt Q5XQU0); assay: Ki app determination (Waley's method)
OXA-65 = OXA-65 (Acinetobacter baumannii, UniProt Q58XD3); assay: Ki app determination (Waley's method)
SHV-5 = SHV-5 (Klebsiella pneumoniae, UniProt P0A3M1); assay: Ki app determination (Waley's method)
OXA-24 = OXA-24 (Acinetobacter baumannii, UniProt Q8RLA6); assay: Ki app determination (Waley's method)
[1] = tested on: E. coli CDC-435 (NDM-1), PBP3 mutations; assay: MIC, broth microdilution; format: cell-based; conditions: Escherichia coli, fixed BLI concentration (μg/mL) in parentheses in label
[2] = tested on: E. coli CDC-162 (NDM-7), PBP3 mutations; assay: MIC, broth microdilution; format: cell-based; conditions: Escherichia coli
[3] = tested on: MEM-nonsusceptible Enterobacterales with metallo-carbapenemases; assay: MIC, broth microdilution; format: cell-based; conditions: MEM-nonsusceptible Enterobacterales with metallo-carbapenemases (41), CDC AR Bank
[4] = tested on: E. coli CDC-151 (NDM-5), PBP3 mutations; assay: MIC, broth microdilution; format: cell-based; conditions: Escherichia coli, fixed BLI concentration (μg/mL) in parentheses in label
[5] = tested on: Enterobacterales (154), CDC AR Bank; assay: MIC, broth microdilution; format: cell-based
[6] = tested on: MEM-nonsusceptible Enterobacterales; assay: MIC, broth microdilution; format: cell-based; conditions: MEM-nonsusceptible Enterobacterales (92), CDC AR Bank
[7] = tested on: 55 isolates of A. baumannii; assay: MIC, broth microdilution; format: cell-based, Acinetobacter baumannii; conditions: Acinetobacter baumannii (55), fixed concentration (μg/mL) in label
[8] = tested on: E. coli CDC-137 (NDM-6), PBP3 mutations; assay: MIC, broth microdilution; format: cell-based; conditions: Escherichia coli, fixed BLI concentration (μg/mL) in parentheses in label
[9] = tested on: serine-carbapenemase-producing isolates (Enterobacterales); assay: MIC, broth microdilution; format: cell-based; conditions: Enterobacterales with serine-carbapenemases (61), CDC AR Bank
[10] = tested on: E. coli CDC-119 (NDM-1), PBP3 mutations; assay: MIC, broth microdilution; format: cell-based; conditions: Escherichia coli
[11] = tested on: Cefepime/taniborbactam-nonsusceptible Enterobacterales with metallo-carbapenemases (25); assay: MIC, broth microdilution; format: cell-based; conditions: CDC AR Bank
96 P. aeruginosa = assay: MIC, broth microdilution; format: cell-based, Pseudomonas aeruginosa; conditions: Pseudomonas aeruginosa (96)
[12] = tested on: MEM-nonsusceptible Enterobacterales with serine-carbapenemases; assay: MIC, broth microdilution; format: cell-based; conditions: MEM-nonsusceptible Enterobacterales with serine-carbapenemases (42), CDC AR Bank
[13] = tested on: MEM-, imipenem/relebactam-, and ceftolozane/tazobactam-nonsusceptible P. aeruginosa; assay: MIC, broth microdilution; format: cell-based, Pseudomonas aeruginosa; conditions: for MIC50 / MIC90: Pseudomonas aeruginosa; for MIC50: read-out: MIC50; for MIC90: read-out: MIC90
[14] = tested on: E. coli CDC-149 (NDM-7), PBP3 mutations; assay: MIC, broth microdilution; format: cell-based; conditions: Escherichia coli
[15] = tested on: E. coli CDC-150 (NDM-5), PBP3 mutations; assay: MIC, broth microdilution; format: cell-based; conditions: Escherichia coli, fixed BLI concentration (μg/mL) in parentheses in label
[16] = CLSI breakpoints, marked c: breakpoints for β-lactam alone
[17] = fixed concentration (μg/mL) in label, read-out: MIC50
[18] = fixed concentration (μg/mL) in label, read-out: MIC90
[19] = fixed concentration (μg/mL) in label
[20] = Imipenem/relebactam-nonsusceptible Pseudomonas aeruginosa (43), CLSI breakpoints, marked c: breakpoints for β-lactam alone
[21] = MEM-nonsusceptible Pseudomonas aeruginosa (76), CLSI breakpoints, marked c: breakpoints for β-lactam alone
[22] = Imipenem/relebactam-nonsusceptible Pseudomonas aeruginosa (43), fixed concentration (μg/mL) in label
[23] = MEM-nonsusceptible Pseudomonas aeruginosa (76), fixed concentration (μg/mL) in label

Structure (SMILES): O=C(O)C[C@@H]1CC[C@H](NC(=O)Cc2cccs2)B(O)O1 [Vaborbactam, vaborbactam]
- Ki (SHV-12): 0.755 ± 0.103 µM
- Ki (OXA-48): > 100 µM
- Ki (NDM-5): > 100 µM
- Ki (CTX-M-27): 0.351 ± 0.0287 µM
- Ki (IMP-1): > 100 µM
- Ki (KPC-38): 0.0483 ± 0.0132 µM
- Ki (OXA-23): > 100 µM
- Ki (VIM-2): > 100 µM
- Ki (OXA-66): > 100 µM
- Ki (IMP-6): > 100 µM
- Ki (KPC-3): 0.0883 ± 0.0303 µM
- Ki (NDM-1): > 100 µM
- Ki (SHV-2): > 100 µM
- Ki (NDM-4): > 100 µM
- Ki (CTX-M-14): 0.392 ± 0.0203 µM
- Ki (NDM-6): > 100 µM
- Ki (KPC-2): 0.0637 ± 0.0249 µM
- Ki (CTX-M-15): 0.0781 ± 0.00663 µM
- Ki (VIM-1): > 100 µM
- Ki (NDM-7): > 100 µM
- Ki (OXA-72): > 100 µM
- Ki (OXA-65): > 100 µM
- Ki (SHV-5): 1.42 µM
- Ki (OXA-24): > 100 µM

Structure (SMILES): C[C@H]1[C@H](NC(=O)/C(=N\OC(C)(C)C(=O)O)c2csc(N)n2)C(=O)N1S(=O)(=O)O [ATM, aztreonam]
- MIC [1]: > 64 µg/mL
- MIC [2]: > 64 µg/mL
- CLSI MIC interpretation I (intermediate) [3, 16]: 0%
- CLSI MIC interpretation R (resistant) [3, 16]: 85.4%
- CLSI MIC interpretation S (susceptible) [3, 16]: 14.6%
- MIC50 [3, 17]: > 64 µg/mL
- MIC90 [3, 18]: > 64 µg/mL
- MIC [4]: 32 µg/mL (≈ 73.5 µM)
- CLSI MIC interpretation I (intermediate) [5, 16]: 2.6%
- CLSI MIC interpretation R (resistant) [5, 16]: 80.5%
- CLSI MIC interpretation S (susceptible) [5, 16]: 16.9%
- MIC50 [5, 19]: > 64 µg/mL
- MIC90 [5, 19]: > 64 µg/mL
- CLSI MIC interpretation I (intermediate) [6, 16]: 1.1%
- CLSI MIC interpretation R (resistant) [6, 16]: 90.2%
- CLSI MIC interpretation S (susceptible) [6, 16]: 8.7%
- MIC50 [6, 17]: > 64 µg/mL
- MIC90 [6, 18]: > 64 µg/mL
- MIC50 ([7]; read-out: MIC50): 64 µg/mL (≈ 147 µM)
- MIC90 ([7]; read-out: MIC90): > 64 µg/mL
- MIC [8]: > 64 µg/mL
- CLSI MIC interpretation I (intermediate) [9, 16]: 3.3%
- CLSI MIC interpretation R (resistant) [9, 16]: 85.2%
- CLSI MIC interpretation S (susceptible) [9, 16]: 11.5%
- MIC50 [9, 17]: > 64 µg/mL
- MIC90 [9, 18]: > 64 µg/mL
- MIC [10]: > 64 µg/mL
- CLSI MIC interpretation I (intermediate) [11, 16]: 0%
- CLSI MIC interpretation R (resistant) [11, 16]: 96%
- CLSI MIC interpretation S (susceptible) [11, 16]: 4%
- MIC50 [11, 19]: > 64 µg/mL
- MIC90 [11, 19]: > 64 µg/mL
- CLSI MIC interpretation R (resistant) (96 P. aeruginosa; [16]): 47.9%
- CLSI MIC interpretation S (susceptible) (96 P. aeruginosa; [16]): 39.6%
- MIC50 (96 P. aeruginosa; [17]): 16 µg/mL (≈ 36.7 µM)
- MIC90 (96 P. aeruginosa; [18]): > 64 µg/mL
- CLSI MIC interpretation I (intermediate) [12, 16]: 2.4%
- CLSI MIC interpretation R (resistant) [12, 16]: 92.9%
- CLSI MIC interpretation S (susceptible) [12, 16]: 4.8%
- MIC50 [12, 17]: > 64 µg/mL
- MIC90 [12, 18]: > 64 µg/mL
- CLSI MIC interpretation (%) I ([13]; I, intermediate (including susceptible dose-dependent), CLSI breakpoints, last subgroup of Table 2): 8.9%
- CLSI MIC interpretation I (intermediate) [13, 20]: 9.3%
- CLSI MIC interpretation R (resistant) [13, 20]: 60.5%
- CLSI MIC interpretation S (susceptible) [13, 20]: 30.2%
- CLSI MIC interpretation R (resistant) [13, 21]: 56.6%
- CLSI MIC interpretation S (susceptible) [13, 21]: 30.3%
- MIC50 [13, 22]: 32 µg/mL
- MIC90 [13, 22]: > 64 µg/mL
- MIC50 [13, 23]: 32 µg/mL (≈ 73.5 µM)
- MIC90 [13, 23]: > 64 µg/mL
- MIC50 ([13]; Table 2, broth microdilution): 32 µg/mL (≈ 73.5 µM)
- MIC90 ([13]; Table 2, broth microdilution): > 64 µg/mL
- CLSI MIC interpretation (%) R ([13]; R, resistant, CLSI breakpoints, last subgroup of Table 2): 62.2%
- CLSI MIC interpretation (%) S ([13]; S, susceptible, CLSI breakpoints, last subgroup of Table 2): 28.9%
- MIC [14]: 0.5 µg/mL (≈ 1.15 µM)
- MIC [15]: 32 µg/mL (≈ 73.5 µM)
